Several values for one entry are separate records, joined by “and”; a condition that tells them apart may be missing. Equal entries are not always repeated.
Experiments:
Canis familiaris [1] = test: Spermine Distribution in kidney was determined after DESPM dosing of 6.0 mg/kg/day for 4.5 days in dog(cu dose-52.4) and sacrificed at 10 days PLD(cu dose-27 mg/kg); type: ADME, organism-based, Canis lupus familiaris; conditions: in vivo, 240 h
Canis familiaris [2] = test: Spermine Distribution in kidney was determined after DESPM dosing of 8.0 mg/kg/day for 4.5 days in dog(cu dose-52.4) and sacrificed at 10 days PLD(cu dose-36 mg/kg); type: ADME, organism-based, Canis lupus familiaris; conditions: in vivo, 240 h
Canis familiaris [3] = test: Spermine Distribution in liver was determined after DESPM dosing of 1.87 mg/kg/day for 28 days in dog(cu dose-52.4) and sacrificed at 10 days PLD(cu dose-52.4 mg/kg); type: ADME, organism-based, Canis lupus familiaris; conditions: in vivo, 240 h
Canis familiaris [4] = test: putrescine Distribution in kidney was determined after DESPM dosing of 8.0 mg/kg/day for 4.5 days in dog and sacrificed at 75 days PLD(cu dose-36 mg/kg); type: ADME, organism-based, Canis lupus familiaris; conditions: in vivo, 1800 h
Canis familiaris [5] = test: Spermine Distribution in liver was determined after DESPM dosing of 1.87 mg/kg/day for 28 days in dog(cu dose-52.4) and sacrificed at 75 days PLD(cu dose-52.4 mg/kg); type: ADME, organism-based, Canis lupus familiaris; conditions: in vivo, 1800 h
Canis familiaris [6] = test: Spermine Distribution in liver was determined after DESPM dosing of 4 mg/kg/day for 13 days in dog(cu dose-52.4) and sacrificed at 75 days PLD(cu dose-52 mg/kg); type: ADME, organism-based, Canis lupus familiaris; conditions: in vivo, 1800 h
Canis familiaris [7] = test: Spermine Distribution in liver was determined after DESPM dosing of 6.0 mg/kg/day for 4.5 days in dog(cu dose-52.4) and sacrificed at 10 days PLD(cu dose-27 mg/kg); type: ADME, organism-based, Canis lupus familiaris; conditions: in vivo, 240 h
Canis familiaris [8] = test: putrescine Distribution in liver was determined after DESPM dosing of 6.0 mg/kg/day for 4.5 days in dog(cu dose-52.4) and sacrificed at 10 days PLD(cu dose-27 mg/kg); type: ADME, organism-based, Canis lupus familiaris; conditions: in vivo, 240 h
Canis familiaris [9] = test: Spermine Distribution in liver was determined after DESPM dosing of 8.0 mg/kg/day for 4.5 days in dog(cu dose-52.4) and sacrificed at 75 days PLD(cu dose-36 mg/kg); type: ADME, organism-based, Canis lupus familiaris; conditions: in vivo, 1800 h
Canis familiaris [10] = test: MESPM/MEHSPH Distribution in liver was determined after DESPM dosing of 6.0 mg/kg/day for 4.5 days in dog(cu dose-52.4) and sacrificed at 75 days PLD(cu dose-27 mg/kg); type: ADME, organism-based, Canis lupus familiaris; conditions: in vivo, 1800 h
Canis familiaris [11] = test: MESPM/MEHSPH Distribution in liver was determined after DESPM dosing of 8.0 mg/kg/day for 4.5 days in dog(cu dose-52.4) and sacrificed at 10 days PLD(cu dose-36 mg/kg); type: ADME, organism-based, Canis lupus familiaris; conditions: in vivo, 240 h
Canis familiaris [12] = test: MESPM/MEHSPH Distribution in liver was determined after DESPM dosing of 8.0 mg/kg/day for 4.5 days in dog(cu dose-52.4) and sacrificed at 75 days PLD(cu dose-36 mg/kg); type: ADME, organism-based, Canis lupus familiaris; conditions: in vivo, 1800 h
Canis familiaris [13] = test: putrescine Distribution in kidney was determined after DESPM dosing of 1.87 mg/kg/day for 28 days in dog and sacrificed at 75 days PLD(cu dose-52.4 mg/kg); type: ADME, organism-based, Canis lupus familiaris; conditions: in vivo, 1800 h
Canis familiaris [14] = test: putrescine Distribution in kidney was determined after DESPM dosing of 4.0 mg/kg/day for 13 days in dog and sacrificed at 10 days PLD(cu dose-52 mg/kg); type: ADME, organism-based, Canis lupus familiaris; conditions: in vivo, 240 h
Canis familiaris [15] = test: putrescine Distribution in kidney was determined after DESPM dosing of 6.0 mg/kg/day for 4.5 days in dog and sacrificed at 75 days PLD(cu dose-27 mg/kg); type: ADME, organism-based, Canis lupus familiaris; conditions: in vivo, 1800 h
Canis familiaris [16] = test: Spermidine Distribution in liver was determined after DESPM dosing of 4 mg/kg/day for 13 days in dog(cu dose-52.4) and sacrificed at 10 days PLD(cu dose-52 mg/kg); type: ADME, organism-based, Canis lupus familiaris; conditions: in vivo, 240 h
Canis familiaris [17] = test: Spermine Distribution in kidney was determined after DESPM dosing of 1.87 mg/kg/day for 28 days in dog(cu dose-52.4) and sacrificed at 75 days PLD(cu dose-52.4 mg/kg); type: ADME, organism-based, Canis lupus familiaris; conditions: in vivo, 1800 h
Canis familiaris [18] = test: Spermine Distribution in kidney was determined after DESPM dosing of 4 mg/kg/day for 13 days in dog(cu dose-52.4) and sacrificed at 10 days PLD(cu dose-52 mg/kg); type: ADME, organism-based, Canis lupus familiaris; conditions: in vivo, 240 h
Canis familiaris [19] = test: MESPM/MEHSPH Distribution in kidney was determined after DESPM dosing of 4 mg/kg/day for 13 days in dog(cu dose-52.4) and sacrificed at 10 days PLD(cu dose-52 mg/kg); type: ADME, organism-based, Canis lupus familiaris; conditions: in vivo, 240 h
Canis familiaris [20] = test: MESPM/MEHSPH Distribution in liver was determined after DESPM dosing of 1.87 mg/kg/day for 28 days in dog(cu dose-52.4) and sacrificed at 75 days PLD(cu dose-52.4 mg/kg); type: ADME, organism-based, Canis lupus familiaris; conditions: in vivo, 1800 h
Canis familiaris [21] = test: MESPM/MEHSPH Distribution in liver was determined after DESPM dosing of 4 mg/kg/day for 13 days in dog(cu dose-52.4) and sacrificed at 75 days PLD(cu dose-52 mg/kg); type: ADME, organism-based, Canis lupus familiaris; conditions: in vivo, 1800 h
Rattus norvegicus [22] = test: Weight loss of rat over the 6-h experimental period when a dose of 4.7 mg/kg (11.6 administered; type: functional
Rattus norvegicus [23] = test: Percent reduction was determined by using the ratio of mean of treated animal to that of control animal at a dose of 14.3 mg/kg; type: functional
Rattus norvegicus [24] = test: Percent reduction was determined by using the ratio of mean of treated animal to that of control animal at a dose of 23.5 mg/kg; type: functional
Rattus norvegicus [25] = test: Percent reduction was determined by using the ratio of mean of treated animal to that of control animal at a dose of 9.4 mg/kg; type: functional
Canis familiaris [26] = test: Spermine Distribution in liver was determined after DEHSPM dosing of 2.0 mg/kg/day for 29 days in dog(cu dose-52.4) and sacrificed at 10 days PLD(cu dose-22 mg/kg); type: ADME, organism-based, Canis lupus familiaris; conditions: in vivo, 240 h
Canis familiaris [27] = test: Spermidine Distribution in liver was determined after DEHSPM dosing of 2.0 mg/kg/day […] in dog(cu dose-52.4) and sacrificed at 10 days PLD(cu dose-22 mg/kg); type: ADME, organism-based, Canis lupus familiaris; conditions: in vivo, 240 h
Canis familiaris [28] = test: putrescine Distribution in kidney was determined after DEHSPM dosing of 2.0 mg/kg/day for 29 days in dog(cu dose-52.4) and sacrificed at 10 days PLD(cu dose-22 mg/kg); type: ADME, organism-based, Canis lupus familiaris; conditions: in vivo, 240 h
Canis familiaris [29] = test: Spermine Distribution in kidney was determined after DEHSPM dosing of 2.0 mg/kg/day for 29 days in dog(cu dose-52.4) and sacrificed at 10 days PLD(cu dose-58 mg/kg); type: ADME, organism-based, Canis lupus familiaris; conditions: in vivo, 240 h
Canis familiaris [30] = test: Distribution in liver was determined after DESPM dosing of 4 mg/kg/day for 13 days in dog(cu dose-52.4) and sacrificed at 75 days PLD(cu dose-52 mg/kg); type: ADME, organism-based, Canis lupus familiaris; conditions: in vivo, 1800 h
Canis familiaris [31] = test: HSPM Distribution in kidney was determined after DEHSPM dosing of 2.0 mg/kg/day for 29 days in dog(cu dose-52.4) and sacrificed at 10 days PLD(cu dose-58 mg/kg); type: ADME, organism-based, Canis lupus familiaris; conditions: in vivo, 240 h
Canis familiaris [32] = test: MESPM/MEHSPH Distribution in kidney was determined after DEHSPM dosing of 2.0 mg/kg/day for 29 days in dog(cu dose-52.4) and sacrificed at 10 days PLD(cu dose-58 mg/kg); type: ADME, organism-based, Canis lupus familiaris; conditions: in vivo, 240 h

SMILES: CCNCCCNCCCCNCCCNCC [BIS(ETHYL)SPERMINE]
- Wet weight of tissue (Canis familiaris [1]): 654 nM/g
- Wet weight of tissue (Canis familiaris [2]): 784 nM/g
- Wet weight of tissue (Canis familiaris [3]): 850 nM/g
- Wet weight of tissue (Canis familiaris [4]): 6 nM/g
- Wet weight of tissue (Canis familiaris [5]): 649 nM/g
- Wet weight of tissue (Canis familiaris [6]): 886 nM/g
- Wet weight of tissue (Canis familiaris [7]): 848 nM/g
- Wet weight of tissue (Canis familiaris [8]): 87 nM/g
- Wet weight of tissue (Canis familiaris [9]): 1058 nM/g
- Wet weight of tissue (Canis familiaris [10]): 1 nM/g
- Wet weight of tissue (Canis familiaris [11]): 21 nM/g
- Wet weight of tissue (Canis familiaris [12]): 0 nM/g
- Wet weight of tissue (Canis familiaris [13]): 16 nM/g
- Wet weight of tissue (Canis familiaris [14]): 12 nM/g
- Wet weight of tissue (Canis familiaris [15]): 8 nM/g
- Wet weight of tissue (Canis familiaris [16]): 176 nM/g
- Wet weight of tissue (Canis familiaris [17]): 540 nM/g
- Wet weight of tissue (Canis familiaris [18]): 277 nM/g
- Wet weight of tissue (Canis familiaris [19]): 7 nM/g
- Wet weight of tissue (Canis familiaris [20]): 0 nM/g
- Wet weight of tissue (Canis familiaris [21]): 0 nM/g
- Weight loss (Rattus norvegicus [22]): <7.5 g
- Reduction (Rattus norvegicus [23]): 66% and 92%
- Reduction (Rattus norvegicus [24]): 59% and 74%
- Reduction (Rattus norvegicus [25]): 55% and 92%

SMILES: CCNCCCCNCCCCNCCCCNCC [DIETHYLHOMOSPERMINE]
- Wet weight of tissue (Canis familiaris [26]): 386 nM/g
- Wet weight of tissue (Canis familiaris [27]): 68 nM/g
- Wet weight of tissue (Canis familiaris [28]): 0 nM/g
- Wet weight of tissue (Canis familiaris [29]): 275 nM/g
- Wet weight of tissue (Canis familiaris [30]): 0 nM/g
- Wet weight of tissue (Canis familiaris [31]): 269 nM/g
- Wet weight of tissue (Canis familiaris [32]): 78 nM/g
